According to PMC10965220 (Bioorganic chemistry, 2022):

Legend:
human COX-1 = target: T1, human COX-1 (Ovis aries, UniProt P05979); assay: In vitro COX-1 inhibition assay
T1 sequence (P05979 25-600): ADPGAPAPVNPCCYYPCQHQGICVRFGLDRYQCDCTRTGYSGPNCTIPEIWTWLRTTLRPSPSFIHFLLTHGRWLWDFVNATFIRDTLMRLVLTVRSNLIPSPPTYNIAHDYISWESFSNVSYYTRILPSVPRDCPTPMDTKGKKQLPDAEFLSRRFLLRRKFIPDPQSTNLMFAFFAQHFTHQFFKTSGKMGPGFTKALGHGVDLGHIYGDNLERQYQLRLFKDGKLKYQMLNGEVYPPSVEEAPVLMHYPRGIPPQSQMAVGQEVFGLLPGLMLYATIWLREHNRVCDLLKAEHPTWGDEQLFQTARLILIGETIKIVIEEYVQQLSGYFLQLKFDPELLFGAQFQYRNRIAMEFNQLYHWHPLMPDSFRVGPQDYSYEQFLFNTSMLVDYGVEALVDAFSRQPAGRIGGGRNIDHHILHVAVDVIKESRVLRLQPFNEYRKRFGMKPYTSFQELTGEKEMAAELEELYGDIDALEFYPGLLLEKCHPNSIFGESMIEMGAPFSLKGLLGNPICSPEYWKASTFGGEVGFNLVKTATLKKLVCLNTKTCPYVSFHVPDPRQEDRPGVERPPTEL

human COX-2 = target: T2, human COX-2 (Homo sapiens, UniProt P35354); assay: In vitro COX-2 inhibition assay; conditions: for COX-2 SI: Selectivity index = COX-1 IC50/COX-2 IC50
T2 sequence (P35354 18-604): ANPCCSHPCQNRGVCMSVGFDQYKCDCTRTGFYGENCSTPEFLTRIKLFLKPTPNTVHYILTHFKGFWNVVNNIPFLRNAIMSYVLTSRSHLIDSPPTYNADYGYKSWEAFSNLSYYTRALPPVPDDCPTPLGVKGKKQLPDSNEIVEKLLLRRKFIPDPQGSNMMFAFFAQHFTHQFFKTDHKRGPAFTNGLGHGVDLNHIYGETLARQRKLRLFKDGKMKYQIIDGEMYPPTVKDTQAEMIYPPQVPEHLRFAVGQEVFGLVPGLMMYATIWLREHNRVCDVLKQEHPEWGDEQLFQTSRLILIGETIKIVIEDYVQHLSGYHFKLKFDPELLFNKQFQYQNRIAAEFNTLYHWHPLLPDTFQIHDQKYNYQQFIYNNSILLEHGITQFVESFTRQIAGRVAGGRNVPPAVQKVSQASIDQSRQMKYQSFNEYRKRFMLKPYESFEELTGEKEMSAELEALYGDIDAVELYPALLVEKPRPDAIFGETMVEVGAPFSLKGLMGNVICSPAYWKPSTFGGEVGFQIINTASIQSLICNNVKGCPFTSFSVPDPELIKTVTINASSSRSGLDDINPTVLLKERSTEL

[1] = system: LPS-induced NO production in RAW 264.7 cells; assay: NO production in LPS-activated RAW 264.7 macrophages; format: cell-based, murine; conditions: vs reference celecoxib
[2] = system: LPS-induced ROS production in RAW 264.7 cells; assay: ROS production in LPS-activated RAW 264.7 macrophages; format: cell-based, murine; conditions: vs reference celecoxib

Row | IC50 (human COX-1) [µM] | IC50 (human COX-2) [µM] | COX-2 SI (human COX-2) | fold better NO IC50 than celecoxib [1] | fold lower ROS IC50 than celecoxib [2] | SMILES
1 | 11.5 ± 1.01 | 0.05 ± 0.01 | 230 | – | – | CC(=O)c1ccc(NC(=O)CSc2nnc(-c3ccc(NC(=O)c4cccnc4)cc3)o2)cc1 [Compound 8a, N-(4-(5-((2-((4-Acetylphenyl)amino)-2-oxoethyl)thio)-1,3,4-oxadiazol-2-yl)phenyl)nicotinamide]
2 | 8.5 ± 0.6 | 0.14 ± 0.01 | 60.71 | more than 41 fold | about 476 fold | O=C(CSc1nnc(-c2ccc(NC(=O)c3cccnc3)cc2)o1)Nc1ccc([N+](=O)[O-])cc1 [Compound 8b, N-(4-(5-((2-((4-Nitrophenyl)amino)-2-oxoethyl)thio)-1,3,4-oxadiazol-2-yl)phenyl)nicotinamide]
3 | 11.5 ± 0.85 | 0.05 ± 0.01 | 230 | – | – | Cc1ccc(NC(=O)CSc2nnc(-c3ccc(NC(=O)c4cccnc4)cc3)o2)cc1 [Compound 8c, N-(4-(5-((2-((4-Methylphenyl)amino)-2-oxoethyl)thio)-1,3,4-oxadiazol-2-yl)phenyl)nicotinamide]
4 | 10.5 ± 2.98 | 0.16 ± 0.04 | 65.63 | – | – | Cc1ccc(C)c(NC(=O)CSc2nnc(-c3ccc(NC(=O)c4cccnc4)cc3)o2)c1 [Compound 8d, N-(4-(5-((2-((2,5-Dimethylphenyl)amino)-2-oxoethyl)thio)-1,3,4-oxadiazol-2-yl)phenyl) nicotinamide]
5 | 7.5 ± 0.75 | 0.11 ± 0.01 | 68.18 | – | – | O=C(CSc1nnc(-c2ccc(NC(=O)c3cccnc3)cc2)o1)Nc1ccc(F)cc1 [Compound 8e, N-(4-(5-((2-((4-Fluorophenyl)amino)-2-oxoethyl)thio)-1,3,4-oxadiazol-2-yl)phenyl)nicotinamide]
6 | 10 ± 3.17 | 0.08 ± 0.01 | 125 | – | – | O=C(CSc1nnc(-c2ccc(NC(=O)c3cccnc3)cc2)o1)Nc1cccc(Br)c1 [Compound 8f, N-(4-(5-((2-((3-Bromophenyl)amino)-2-oxoethyl)thio)-1,3,4-oxadiazol-2-yl)phenyl)nicotinamide]
7 | 8.5 ± 0.71 | 0.05 ± 0.01 | 170 | – | – | O=C(CSc1nnc(-c2ccc(NC(=O)c3cccnc3)cc2)o1)Nc1ccccc1Cl [Compound 8g, N-(4-(5-((2-((2-Chlorophenyl)amino)-2-oxoethyl)thio)-1,3,4-oxadiazol-2-yl)phenyl)nicotinamide]
8 | 11.5 ± 0.98 | 0.11 ± 0.02 | 104.55 | – | – | Cc1ccc(C=Nn2c(-c3ccc(NC(=O)c4cccnc4)cc3)n[nH]c2=S)cc1 [Compound 10a, N-(4-(4-((4-Methylbenzylidene)amino)-5-thioxo-4,5-dihydro-1H-1,2,4-triazol-3-yl)phenyl) nicotinamide]
9 | 8 ± 0.14 | 0.11 ± 0.01 | 72.73 | – | – | O=C(Nc1ccc(-c2n[nH]c(=S)n2N=Cc2c[nH]c3ccccc23)cc1)c1cccnc1 [Compound 10b, N-(4-(4-(((1H-Indol-3-yl)methylene)amino)-5-thioxo-4,5-dihydro-1H-1,2,4-triazol-3-yl)phenyl) nicotinamide]
10 | 8.5 ± 0.62 | 0.11 ± 0.01 | 77.27 | – | – | CC(=O)c1ccc(NC(=O)CSc2nnc(-c3ccc(NC(=O)c4cccnc4)cc3)n2N)cc1 [Compound 11a, N-(4-(5-((2-((4-Acetylphenyl)amino)-2-oxoethyl)thio)-4-amino-4H-1,2,4-triazol-3-yl)phenyl) nicotinamide]
11 | 11.5 ± 1.41 | 0.08 ± 0.01 | 143.75 | – | – | Nn1c(SCC(=O)Nc2ccc([N+](=O)[O-])cc2)nnc1-c1ccc(NC(=O)c2cccnc2)cc1 [Compound 11b, N-(4-(4-Amino-5-((2-((4-nitrophenyl)amino)-2-oxoethyl)thio)-4H-1,2,4-triazol-3-yl)phenyl) nicotinamide]
12 | 13.5 ± 1.63 | 0.04 ± 0.01 | 337.5 | – | – | Cc1ccc(NC(=O)CSc2nnc(-c3ccc(NC(=O)c4cccnc4)cc3)n2N)cc1 [Compound 11c, N-(4-(4-Amino-5-((2-((4-methylphenyl)amino)-2-oxoethyl)thio)-4H-1,2,4-triazol-3-yl)phenyl) nicotinamide]
13 | 10.5 ± 3.03 | 0.08 ± 0.01 | 131.25 | – | – | Cc1ccc(C)c(NC(=O)CSc2nnc(-c3ccc(NC(=O)c4cccnc4)cc3)n2N)c1 [Compound 11d, N-(4-(4-Amino-5-((2-((2,5-dimethylphenyl)amino)-2-oxoethyl)thio)-4H-1,2,4-triazol-3-yl)phenyl) nicotinamide]
14 | 10 ± 2.34 | 0.06 ± 0.01 | 166.67 | – | – | Nn1c(SCC(=O)Nc2ccc(F)cc2)nnc1-c1ccc(NC(=O)c2cccnc2)cc1 [Compound 11e, N-(4-(4-Amino-5-((2-((4-fluorophenyl)amino)-2-oxoethyl)thio)-4H-1,2,4-triazol-3-yl)phenyl) nicotinamide]
15 | 9.5 ± 0.99 | 0.09 ± 0.01 | 105.56 | – | – | Nn1c(SCC(=O)Nc2cccc(Br)c2)nnc1-c1ccc(NC(=O)c2cccnc2)cc1 [Compound 11f, N-(4-(4-Amino-5-((2-((3-bromophenyl)amino)-2-oxoethyl)thio)-4H-1,2,4-triazol-3-yl)phenyl) nicotinamide]
16 | 10.5 ± 2.25 | 0.08 ± 0.01 | 131.25 | – | – | Nn1c(SCC(=O)Nc2ccccc2Cl)nnc1-c1ccc(NC(=O)c2cccnc2)cc1 [Compound 11g, N-(4-(4-Amino-5-((2-((2-chlorophenyl)amino)-2-oxoethyl)thio)-4H-1,2,4-triazol-3-yl)phenyl) nicotinamide]
